How the values were obtained:
[1] = tested on: Alternaia brassicicola; assay: Test Example C: Alternaria sooty spot on cabbage; type: in vivo; settings: 250 ppm drug solution sprayed on test plant
From the text: Seeds of a test plant (cabbage variety: Shikidori) were planted and cultivated until the cotyledons extended.
<Control Value> Control value=100{1−(n/3)}

[2] = tested on: Colletotrichum orbiculare; assay: Test Example H: Anthracnose on cucumber; settings: 250 ppm drug solution sprayed (2.5 ml/pot), cucumber Sagami Hanjiro, 6 to 10 days after inoculation
[3] = tested on: Phytophthora infestans; assay: whole plant or invertebrate; type: in vivo; settings: 250 ppm drug solution sprayed on test plant
[4] = tested on: Puccinia recondita; assay: Test Example E: Brown rust on wheat; type: in vivo; settings: 250 ppm drug solution sprayed on test plant
[5] = tested on: Magnaporthe grisea; assay: whole plant or invertebrate; type: in vivo; settings: 250 ppm drug solution sprayed on test plant
[6] = tested on: Plasmopara viticola; assay: Test Example G: Downy mildew on vine; settings: 250 ppm drug solution sprayed (2.5 ml/pot), grape Neomuscat, 7 to 10 days after inoculation
Procedure: Seeds of a test plant (grape variety: Neomuscat) were planted and cultivated until three to four first leaves appeared. In the test, the inventive compounds were dissolved into dimethyl sulfoxide-methanol mixture solution (volume ratio: 9/1), and the resultant solutions were diluted with well water to a concentration of 250 ppm to obtain the drug solutions. The drug solutions were sprayed to the test plant (2.5 ml/pot). After the drug solutions dried, a zoosporangia suspension (1-2×10^4 zoosporangia/ml) of Plasmopara viticola was inoculated to the plant by spraying. After the inoculation, the plant was kept in a mist chamber at room temperature of 20° C. for about 24 hours to promote the onset of disease. The degrees of disease development were investigated 7 to 10 days after the inoculation, and the effectiveness of the drug solutions was evaluated.
(§1) In Test Examples described above, the degrees of disease development were evaluated in increments of 0.05 from 0 (as no incidence of disease) to 3 (as the degree of disease development in an untreated plant group). Further, control values were calculated using the following equation based on the degree of disease development.
(§2) n=Degree of disease development in each treated group

[7] = tested on: Blumeria graminis f. sp. hordei; assay: Test Example D: Powdery mildew on barley; settings: 250 ppm drug solution sprayed on test plant
Procedure: Seeds of a test plant (barley variety: Akashinriki) were planted and cultivated until the first leaves appeared. In the test, the inventive compounds were dissolved into dimethyl sulfoxide-methanol mixture solution (volume ratio: 9/1), and the resultant solutions were diluted with well water to a concentration of 250 ppm to obtain the drug solutions. The drug solutions were sprayed to the test plant (2.5 ml/pot). After the drug solutions dried, conidia of Blumeria graminis f. sp. hordei were inoculated to the plant by shaking off. The degrees of disease development were investigated 6 to 10 days after the inoculation, and the effectiveness of the drug solutions was evaluated.
as §1, §2

[8] = tested on: Botrytis cinerea; assay: Test Example B: Gray mold on tomato; settings: 250 ppm drug solution sprayed on test plant

Row | SMILES | Test C control value [1] | Test H control value [2] | Test F control value [3] | Test E control value [4] | Test A control value [5] | Test G control value [6] | Test D control value [7] | Test B control value [8]
1 | CCc1cc(Cl)c(=O)n(CC)c1-c1c(F)cc(F)cc1F [compound 386] | H (more than 50% control value) | H (more than 50% control value) | L (50% or less control value) | H (more than 50% control value) | H (more than 50% control value) | H (more than 50% control value) | H (more than 50% control value) | H (more than 50% control value)
2 | CCc1cc(Br)c(=O)n(CC)c1-c1c(F)cc(F)cc1F [compound 387] | H (more than 50% control value) | H (more than 50% control value) | L (50% or less control value) | H (more than 50% control value) | H (more than 50% control value) | H (more than 50% control value) | H (more than 50% control value) | H (more than 50% control value)
3 | CCc1ccc(=O)n(CC)c1-c1c(F)cc(OC)cc1F [compound 388] | H (more than 50% control value) | H (more than 50% control value) | L (50% or less control value) | H (more than 50% control value) | H (more than 50% control value) | L (50% or less control value) | L (50% or less control value) | H (more than 50% control value)
4 | CCCc1cc(Br)c(=O)n(CC)c1-c1c(F)cc(F)cc1F [compound 389] | H (more than 50% control value) | H (more than 50% control value) | L (50% or less control value) | H (more than 50% control value) | H (more than 50% control value) | L (50% or less control value) | H (more than 50% control value) | H (more than 50% control value)
5 | CCc1cc(Cl)c(=O)n(CC)c1-c1c(F)cc(OC)cc1F [compound 390] | H (more than 50% control value) | H (more than 50% control value) | L (50% or less control value) | H (more than 50% control value) | H (more than 50% control value) | H (more than 50% control value) | H (more than 50% control value) | H (more than 50% control value)
6 | CCc1cc(Br)c(=O)n(CC)c1-c1c(F)cc(OC)cc1F [compound 391] | H (more than 50% control value) | H (more than 50% control value) | L (50% or less control value) | H (more than 50% control value) | H (more than 50% control value) | L (50% or less control value) | L (50% or less control value) | H (more than 50% control value)
7 | CCCc1ccc(=O)n(C)c1-c1ccc(F)cc1Br [compound 410] | L (50% or less control value) | L (50% or less control value) | L (50% or less control value) | H (more than 50% control value) | L (50% or less control value) | L (50% or less control value) | H (more than 50% control value) | L (50% or less control value)
8 | CCCc1ccc(=O)n(CC)c1-c1ccc(OC)cc1C [compound 411] | L (50% or less control value) | L (50% or less control value) | L (50% or less control value) | H (more than 50% control value) | L (50% or less control value) | L (50% or less control value) | H (more than 50% control value) | H (more than 50% control value)
9 | CCCc1cc(Cl)c(=O)n(CC)c1-c1ccc(OC)cc1C [compound 412] | H (more than 50% control value) | H (more than 50% control value) | H (more than 50% control value) | H (more than 50% control value) | H (more than 50% control value) | L (50% or less control value) | H (more than 50% control value) | H (more than 50% control value)
10 | CCCc1cc(Br)c(=O)n(CC)c1-c1ccc(OC)cc1C [compound 413] | H (more than 50% control value) | H (more than 50% control value) | L (50% or less control value) | H (more than 50% control value) | H (more than 50% control value) | L (50% or less control value) | L (50% or less control value) | H (more than 50% control value)
11 | CCCc1cc(Cl)c(=O)n(C)c1-c1ccc(F)cc1Br [compound 414] | H (more than 50% control value) | H (more than 50% control value) | L (50% or less control value) | H (more than 50% control value) | H (more than 50% control value) | L (50% or less control value) | H (more than 50% control value) | H (more than 50% control value)
12 | CCCc1cc(Br)c(=O)n(C)c1-c1ccc(F)cc1Br [compound 415] | H (more than 50% control value) | L (50% or less control value) | L (50% or less control value) | H (more than 50% control value) | H (more than 50% control value) | L (50% or less control value) | L (50% or less control value) | H (more than 50% control value)
13 | CCCc1ccc(=O)n(C)c1-c1ccc(OC)cc1Br [compound 416] | L (50% or less control value) | L (50% or less control value) | L (50% or less control value) | H (more than 50% control value) | L (50% or less control value) | L (50% or less control value) | L (50% or less control value) | L (50% or less control value)
14 | CCCc1cc(Cl)c(=O)n(C)c1-c1ccc(OC)cc1Br [compound 417] | H (more than 50% control value) | H (more than 50% control value) | L (50% or less control value) | H (more than 50% control value) | L (50% or less control value) | L (50% or less control value) | L (50% or less control value) | H (more than 50% control value)
15 | CCCc1cc(Br)c(=O)n(C)c1-c1ccc(OC)cc1Br [compound 418] | H (more than 50% control value) | H (more than 50% control value) | H (more than 50% control value) | H (more than 50% control value) | L (50% or less control value) | L (50% or less control value) | L (50% or less control value) | H (more than 50% control value)
16 | CCCc1ccc(=O)n(C)c1-c1ccc(F)cc1C [compound 419] | H (more than 50% control value) | H (more than 50% control value) | L (50% or less control value) | L (50% or less control value) | L (50% or less control value) | L (50% or less control value) | L (50% or less control value) | L (50% or less control value)
17 | CCCc1cc(Cl)c(=O)n(C)c1-c1ccc(F)cc1C [compound 420] | L (50% or less control value) | L (50% or less control value) | L (50% or less control value) | H (more than 50% control value) | L (50% or less control value) | L (50% or less control value) | H (more than 50% control value) | H (more than 50% control value)
18 | CCCc1cc(Br)c(=O)n(C)c1-c1ccc(F)cc1C [compound 421] | H (more than 50% control value) | H (more than 50% control value) | L (50% or less control value) | H (more than 50% control value) | L (50% or less control value) | L (50% or less control value) | H (more than 50% control value) | H (more than 50% control value)
